Assay [1] concerns HPAC pancreatic cancer cell line. The experiment in a line: In vitro antiproliferative activity, HPAC pancreatic cancer cell line. The assay is classed as cell-based. As to conditions: Homo sapiens, Table 1. Here is the method: (§1) Substituted β-carboline compounds 4 to 38 were tested for antiproliferative activity against HCT116 colon cancer cells and HPAC, Mia-PaCa2 and Panc-1 pancreatic cancer cell lines. Table 1 lists the IC50 values for the substituted β-carbolines.
(§2) Substituted β-carbolines and analog compounds 39 to 57 were tested for antiproliferative activity against HPAC, Mia-PaCa2 and Panc-1 pancreatic cancer cell lines and MCF-7 and MDA-MB-468 breast cancer cell lines. Table 2 lists the IC50 values for the substituted β-carbolines and analogs thereof.

The test system of assay [2] is Panc-1 pancreatic cancer cell line. Briefly: In vitro antiproliferative activity, Panc-1 pancreatic cancer cell line. The assay is classed as cell-based, human. As to conditions: Homo sapiens, Table 1. Here is the method: as §2
Assay [3] deals with Mia-PaCa2 pancreatic cancer cell line. The experiment in a line: In vitro antiproliferative activity, Mia-PaCa2 pancreatic cancer cell line. The format is cell-based. As to conditions: Homo sapiens, MIA PaCa-2, Table 1. Here is the method:
as §1, §2

In assay [4] the test system is HCT116 colon cancer cells. The experiment in a line: In vitro antiproliferative activity, HCT116 colon cancer cells. The assay is classed as cell-based. As to conditions: Homo sapiens, HCT-116, Table 1. Here is the method: as §1

By pIC50 is commonly meant the negative decadic logarithm of the IC50, by convention in mol/L.

pIC50: −log10 of the molar value.

As to `COc1ccc2c(c1)[nH]c1c(-c3nccc4ccccc34)nccc12` [Compound 12, 1-Isoquinolin-1-yl-7-methoxy-9H-β-carboline], the pIC50 in assay [1] is 4.46; in assay [2] it was less than 4.30; in assay [3] it was 4.31.
Regarding `COc1ccc2[nH]c3c(-c4cnc5ccccc5c4)nccc3c2c1` [Compound 17, 6-Methoxy-1-quinolin-3-yl-9H-β-carboline], the pIC50 is 4.66 in assay [1], 4.85 in assay [4], 4.54 in assay [2] and 4.77 in assay [3].
On the same counts, the results for `Cc1cccc2c1[nH]c1c(-c3cccc4ccccc34)nccc12` [Compound 37, 8-Methyl-1-naphthalen-1-yl-9H-β-carboline] are 5.19, 5.59, less than 4.30 and 5.45.
Take `COc1ccc2c(c1)[nH]c1c(-c3ccc4ccccc4c3)nccc12` [Compound 26, 7-Methoxy-1-naphthalen-2-yl-9H-β-carboline]: the pIC50 in assay [1] was 4.68; in assay [4], 4.77; in assay [2] it was 4.32; in assay [3], 4.66.
On the same counts, the results for `COc1ccc2[nH]c3c(-c4c5ccccc5cc5ccccc45)nccc3c2c1` [Compound 27, 1-Anthracen-9-yl-6-methoxy-9H-β-carboline] are 5.22, 5.68, 4.98 and 5.61.
Taken in the same sequence, the figures for `COc1ccc2[nH]c3c(-c4cncc5ccccc45)nccc3c2c1` [Compound 15, 1-Isoquinolin-4-yl-6-methoxy-9H-β-carboline] were 5.13, 5.24, 4.98 and 5.33.
On the same counts, the results for `COc1ccc2c(c1)[nH]c1c(-c3cccc4nccnc34)nccc12` [Compound 14, 7-Methoxy-1-quinoxalin-5-yl-9H-β-carboline] are less than 4.30, 4.30, less than 4.30 and less than 4.30.
Regarding `COc1ccc2[nH]c3c(-c4c(C)ccc5ccccc45)nccc3c2c1` [Compound 33, 6-Methoxy-1-(2-methyl-naphthalen-1-yl)-9H-β-carboline], the pIC50 in assay [1] is 5.03; in assay [4] it was 5.74; in assay [2] it was 4.70; in assay [3] it was 5.65.
Take `COc1ccc2c(c1)[nH]c1c(-c3cccc4ncccc34)nccc12` [Compound 22, 7-Methoxy-1-quinolin-5-yl-9H-β-carboline]: the pIC50 in assay [1] is less than 4.30; in assay [4] it was 4.89; in assay [2] it was less than 4.30; in assay [3], 4.54.
In the case of `COc1ccc2[nH]c3c(-c4cccc5ncccc45)nccc3c2c1` [Compound 21, 6-Methoxy-1-quinolin-5-yl-9H-β-carboline], the pIC50 is 5.23 in assay [1], 6.05 in assay [4], 5.12 in assay [2] and 5.59 in assay [3].
On the same counts, the results for `COc1ccc2c(c1)[nH]c1c(-c3c(C)ccc4ccccc34)nccc12` [Compound 34, 7-Methoxy-1-(2-methyl-naphthalen-1-yl)-9H-β-carboline] are 4.75, 5.61, 4.48 and 4.68.
On the same counts, the results for `COc1ccc2[nH]c3c(-c4cccc5cnccc45)nccc3c2c1` [Compound 23, 1-Isoquinolin-5-yl-6-methoxy-9H-β-carboline] are 4.80, 5.05, 4.67 and 5.01.
On the same counts, the results for `COc1ccc2c(c1)[nH]c1c(-c3cc4ccccc4c4ccccc34)nccc12` [Compound 30, 7-Methoxy-1-phenanthren-9-yl-9H-β-carboline] are 5.25, 6.06, less than 4.30 and 5.80.
Turning to `COc1ccc2c(c1)[nH]c1c(-c3cnc4ccccc4c3)nccc12` [Compound 18, 7-Methoxy-1-quinolin-3-yl-9H-β-carboline], the pIC50 in assay [1] is 4.84; in assay [4] it was 4.88; in assay [2], 4.43; in assay [3] it was 4.78.
For the molecule `COc1ccc2c(-c3nccc4c3[nH]c3ccc(OC)cc34)cccc2c1` [Compound 35, 6-Methoxy-1-(6-methoxy-naphthalen-1-yl)-9H-β-carboline], the pIC50 in assay [1] is 4.64; in assay [4] it was 5.65; in assay [2] it was less than 4.30; in assay [3], 4.33.
`COc1ccc2c(c1)[nH]c1c(-c3cccc4cnccc34)nccc12` [Compound 24, 1-Isoquinolin-5-yl-7-methoxy-9H-β-carboline]: the pIC50 in assay [1] was 4.46; in assay [4], 4.82; in assay [2], less than 4.30; in assay [3], 4.62.
With `COc1ccc2c(c1)[nH]c1c(-c3ccccc3)nccc12` [Compound 32, 7-Methoxy-1-phenyl-9H-β-carboline], the pIC50 in assay [1] is 4.47; in assay [4], 4.50; in assay [2], less than 4.30; in assay [3], 4.46.
Regarding `COc1ccc2[nH]c3c(-c4cc5ccccc5c5ccccc45)nccc3c2c1` [Compound 29, 6-Methoxy-1-phenanthren-9-yl-9H-β-carboline], the negative-log IC50 (pIC50) is 6.27 in assay [1], 6.28 in assay [4], 4.75 in assay [2] and 6.08 in assay [3].
Consider `COc1ccc2[nH]c3c(-c4ccc5ccccc5c4)nccc3c2c1` [Compound 25, 6-Methoxy-1-naphthalen-2-yl-9H-β-carboline], for which the pIC50 in assay [1] was 5.25; in assay [4], 6.17; in assay [2] it was 5.08; in assay [3], 5.87.
Taken in the same sequence, the figures for `COc1ccc2[nH]c3c(-c4cccc5nccnc45)nccc3c2c1` [Compound 13, 6-Methoxy-1-quinoxalin-5-yl-9H-β-carboline] were less than 4.30, 4.58, less than 4.30 and less than 4.30.
Turning to `COc1ccc2[nH]c3c(-c4ccc(-c5ccccn5)cc4)nccc3c2c1` [Compound 38, 6-Methoxy-1-(4-pyridin-2-yl-phenyl)-9H-β-carboline], the pIC50 in assay [1] is 4.77; in assay [4], 5.52; in assay [2], 4.32; in assay [3], 4.32.
As for `c1ccc(COc2ccc3[nH]c4c(-c5cccc6ccccc56)nccc4c3c2)cc1` [Compound 36, 6-Benzyloxy-1-naphthalen-1-yl-9H-β-carboline], the pIC50 is 6.08 in assay [1], 6.24 in assay [2] and 6.29 in assay [3].
On the same counts, the results for `COc1ccc2c(c1)[nH]c1c(-c3cccnc3)nccc12` [Compound 5, 1-Pyridin-3-yl-7-methoxy-9H-β-carboline] are less than 4.30, less than 4.30 and 4.35.
For the molecule `COc1ccc2c(c1)[nH]c1c(-c3ccoc3)nccc12` [Compound 8, 1-Furan-3-yl-7-methoxy-9H-β-carboline], the pIC50 in assay [1] is 4.35; in assay [2] it was less than 4.30; in assay [3], 4.42.

Source of the values: patent publication US8927570B2, “1-naphthyl-or 1-dihydroacenaphthenyl-pyrido[B]indoles and uses thereof in treating cancers” (priority 2009, dated 2015).
